In patent US9119881B2, “Method of synergistically enhancing the therapeutic efficacy and safety of medication through a combination therapy” (priority 2010, dated 2015):
Marks after values point to notes of the source that are not given here.

Key:
[1] = system: human aorta endothelial cells (HAECs); assay: Nitric oxide assessment in HAECs; type: cell-based; conditions: 15 min treatment, beginning at 0.1 uM ABA
Method: Confluent human aorta endothelial cells (HAECs) were serum-starved using HBSS buffer for 30 min, then stimulated with various concentration of ABA and Forskolin (1 uM) for 5 min, after removing supernatant, cells were lysed with 0.1 M HCL to measure non-acetylated cAMP using a commercially available kit (Cayman chemical) following the manufacturer's instructions. Results (pmol/mL) were obtained from four independent experiments. For nitric oxide (NO), confluent HAECs were serum-starved for 30 min by using HBSS buffer, then treated with ABA for 15 min. Supernatant was used to measure NO using an fluorescent kit.

[2] = target: T1, PPAR γ (Mus musculus, UniProt P37238); assay: PPAR γ reporter activity assay in 3T3-L1 preadipocytes; type: cell-based; conditions: 6 hrs, Ros 1 μM, ABA 10 μM
T1 construct: expressed in transfected cells; host or cells: 3T3-L1 pre-adipocytes
T1 sequence (P37238 31-505 limits assumed): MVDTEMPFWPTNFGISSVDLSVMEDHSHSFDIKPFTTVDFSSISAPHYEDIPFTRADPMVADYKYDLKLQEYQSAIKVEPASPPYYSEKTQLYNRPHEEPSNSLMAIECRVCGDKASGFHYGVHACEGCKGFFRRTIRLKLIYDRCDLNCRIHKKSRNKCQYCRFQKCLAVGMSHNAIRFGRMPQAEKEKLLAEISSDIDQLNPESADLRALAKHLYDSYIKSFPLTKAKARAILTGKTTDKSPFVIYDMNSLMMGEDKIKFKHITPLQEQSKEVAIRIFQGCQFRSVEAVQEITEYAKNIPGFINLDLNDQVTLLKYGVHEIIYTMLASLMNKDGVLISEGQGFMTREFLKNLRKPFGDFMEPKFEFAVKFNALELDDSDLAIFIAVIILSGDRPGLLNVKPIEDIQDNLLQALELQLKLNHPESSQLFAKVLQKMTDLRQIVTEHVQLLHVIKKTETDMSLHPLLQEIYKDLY
Method: For 3T3-L1 preadipocytes cells were treated for 6-h with vehicle (DMSO) or Ros (1 μM) with ABA (10 μM), the cAMP-inhibitor 2′5′ dideoxyadenosine (dideoxy, 10 μM), or 14-22 myristolated PKA inhibitor fragment (PKAi, 30 μM). […] Luciferase activity was normalized to pRL activity in the cell extracts and relative luciferase activity was calculated a ratio of the activity in the treatment wells to control wells. Data are represented as mean±standard error.
A pCMX.PPAR γ expression plasmid and a pTKPPRE3x luciferase reporter plasmid driven by the PPRE-containing Acyl-CoA oxidase promoter (kindly provided by Dr. R M. Evans, The Salk Institute, San Diego, Calif.) were purified using Qiagen's Maxi kit (Valencia, Calif.). […] Cells were co-transfected in the […] with 1.5 μg plasmid DNA and 25 ng of pRL reporter control using F-2 transfection reagents (Targeting Systems, Santee, Calif.) according to the manufacturer's protocol. […] Cells were then treated in replicates of 8 with vehicle (DMSO), rosiglitazone (1 or 10 μM; Cayman Chemicals, Arm Arbor, Mich.), or ABA (10 μM; Sigma) with and without 2′5′ dideoxyadenosine (10 μM; Sigma) and 14-22 myristolated PKA inhibitor fragment (PKAi, 30 μM; Sigma). […] Luciferase activity, normalized to pRL activity in the cell extracts was determined by using the Dual Luciferase II reporter assay system (Promega, Madison, Wis.) using a Modulus 96-well luminometer (Turner Biosystems, Sunnyvale, Calif.). All values were normalized to control wells to calculate relative luciferase activity.

[3] = Dietary ABA and rosiglitazone in obese db/db mice: body and organ weights; type: in vivo; conditions: db/db mice, ABA 100 mg/kg diet, day 60
Method: Twelve-fifteen week-old BKS.Cg-+Lepr^db/+Lepr^db/OlaHsd (db/db) mice were housed at the animal facilities at Virginia Polytechnic Institute and State University in a room maintained at 75° F., with a 12:12 h light-dark cycle starting from 6:00 AM. All experimental procedures were approved by the Institutional Animal Care and Use Committee of Virginia Polytechnic Institute and State University and met or exceeded requirements of the Public Health Service, National Institutes of Health and the Animal Welfare Act. […] Louis, Mo.) for 60 days. Mice were weighed and fasting (12 h) blood glucose levels were taken weekly. Blood glucose levels were assessed with an ACCU-CHEK® Glucometer (Roche, Indianapolis, Ind.). […] On day 60 mice were sacrificed by CO2 narcosis with secondary thoracotomy. Abdominal WAT, inguinal subcutaneous WAT, and liver were then excised and weighed. Abdominal and subcutaneous WAT were then digested and fractionated.

[4] = system: insulin-secreting pancreatic beta cells; assay: Pancreatic beta cell viability / apoptosis after streptozotocin challenge; type: cell-based
Description: Data are presented as mean±standard error.

CC1=CC(=O)CC(C)(C)C1(O)/C=C/C(C)=C\C(=O)O (racemic) [ABA, abscisic acid]
nitric oxide production [1]: significantly increased
PPAR γ activity [2]: increased
Ab. WAT % Body Weight ([3]; no rosiglitazone): 4.7 ± 0.68^a % Body Weight
Sc. WAT % Body Weight ([3]; no rosiglitazone): 2.8 ± 0.48 % Body Weight
Ab. WAT as percent body weight (in words) ([3]; Ros^hi): significantly and independently reduced
inguinal SCAT weight (in words) ([3]; Ros^hi): little affect
viability of insulin-secreting pancreatic beta cells ([4]; ABA 1 and 10 micromolar, streptozotocin (STZ) 2 mM for 24 hours): increases
pancreatic beta cell apoptosis caused by streptozotocin ([4]; FIG. 4): diminishes
